Laboratory results reported in patent US9458154B2, “Kinase inhibitors” (Chiesi Farmaceutici S.p.A., priority 2011, dated 2016).
Counter-ions that a name gives are not always drawn.

target: T1, p38alpha (Homo sapiens, UniProt Q16539); assay: P38alpha Enzyme Inhibition Assay (Alphascreen kinase activity assay); type: biochemical; conditions: 100 pM p38alpha, ATF-2 fusion protein substrate, 250 μM ATP, 2 hours preincubation at 25° C.; read-out: p38α inhibition
T1 construct: purchased Invitrogen PV3304
T1 sequence (Q16539 whole entry, the tested form may be a part): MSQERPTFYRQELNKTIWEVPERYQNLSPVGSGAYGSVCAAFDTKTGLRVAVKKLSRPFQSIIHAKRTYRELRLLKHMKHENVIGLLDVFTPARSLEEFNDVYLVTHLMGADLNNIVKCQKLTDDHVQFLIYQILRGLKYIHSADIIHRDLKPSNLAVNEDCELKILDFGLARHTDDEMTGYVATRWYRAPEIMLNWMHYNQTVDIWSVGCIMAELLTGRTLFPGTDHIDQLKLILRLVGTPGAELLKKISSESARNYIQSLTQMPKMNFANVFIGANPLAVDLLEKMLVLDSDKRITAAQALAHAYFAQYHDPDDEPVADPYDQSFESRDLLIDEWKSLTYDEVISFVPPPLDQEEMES
Description: P38alpha Enzyme Inhibition Assay
The inhibitory activity of compounds was determined using an Alphascreen® (Perkin Elmer) based kinase activity assay. Kinase reactions consisted of 25 mM HEPES pH 7.5, 10 mM MgCl2, 100 μM Na3VO4, 2 mM DTT, 0.05 mg/ml Tween 20, 100 pM p38alpha (Invitrogen, PV3304), 1% DMSO and 0.3 μg/ml ATF-2 fusion protein (New England Biolabs, 9224). Compounds were incubated under these conditions for 2 hours, at 25° C., prior to the initiation of the kinase activity by the addition of the 250 μM ATP. Reaction volumes were 20 uL. After 1 hr at 25° C. reactions were stopped by the adding 10 uL of 25 mM HEPES pH 7.5 containing 62.5 mM EDTA, 0.05% Triton X-100, 10% BSA and 0.83 ng/uL anti-phospho-ATF2 antibody (Abcam, ab28812). Detection was performed by measuring luminescence following the addition of Alphascreen Donor beads (Perkin Elmer 6765300) and Protein A Alphascreen Acceptor beads (Perkin Elmer 6760137), both at a final concentration of 20 ug/ml. IC50 values were determined from concentration-response curves.

| Compound | IC50 [nM] |
| --- | --- |
| Cc1ccc(-n2nc(C(C)(C)C)cc2NC(=O)N[C@H]2CC[C@@H](Oc3ccc4nnc(C(C)(C)C)n4c3)c3ccccc32)cc1 [Example 16, 1-(5-tert-Butyl-2-p-tolyl-2H-pyrazol-3-yl)-3-[(1S,4R)-4-(3-tert-butyl-[1,2,4]triazolo[4,3-a]pyridin-6-yloxy)-1,2,3,4-tetrahydro-naphthalen-1-yl]-urea] | < 10 |
| COCC(=O)Nc1cc(CO[C@@H]2CC[C@H](NC(=O)Nc3cc(C(C)(C)C)nn3-c3ccc(C)cc3)c3ccccc32)ccn1 [Example 9, N-(4-{(1R,4S)-4-[3-(5-tert-Butyl-2-p-tolyl-2H-pyrazol-3-yl)-ureido]-1,2,3,4-tetrahydro-naphthalen-1-yloxymethyl}-pyridin-2-yl)-2-methoxy-acetamide] | < 10 |
| Cc1ccc(-n2nc(C(C)(C)C)cc2NC(=O)N[C@H]2CC[C@@H](Oc3ccc4nnc(-c5ccccc5O)n4c3)c3ccccc32)cc1 [Example 7, 1-(5-tert-Butyl-2-p-tolyl-2H-pyrazol-3-yl)-3-{(1S,4R)-4-(3-(2-hydroxy-phenyl)-[1,2,4]triazolo[4,3-a]pyridin-6-yloxy)-1,2,3,4-tetrahydro-naphthalen-1-yl}-urea] | < 10 |
| Cc1ccc(-n2nc(C(C)(C)C)cc2NC(=O)N[C@@H]2C[C@@H](Sc3ccc4nnc(C(C)C)n4c3)c3ccccc32)cc1 (racemic) [Example 3, (±)-trans-1-(5-tert-Butyl-2-p-tolyl-2H-pyrazol-3-yl)-3-[3-(3-isopropyl-[1,2,4]triazolo[4,3-a]pyridin-6-ylsulfanyl)-indan-1-yl]-urea] | < 10 |
| CC(C)c1nnc2ccc(O[C@@H]3CC[C@H](NC(=O)Nc4cc(C(C)(C)C)nn4-c4cccc(CN5CCOCC5)c4)c4ccccc43)cn12 [Example 19, 1-[5-tert-Butyl-2-(3-morpholin-4-ylmethyl-phenyl)-2H-pyrazol-3-yl]-3-[(1S,4R)-4-(3-isopropyl-[1,2,4]triazolo[4,3-a]pyridin-6-yloxy)-1,2,3,4-tetrahydro-naphthalen-1-yl]-urea, formic acid salt] | < 10 |
| CC(C)c1nnc2ccc(O[C@@H]3CC[C@H](NC(=O)Nc4cc(C(C)(C)C)nn4-c4ccc(O)c(Cl)c4)c4ccccc43)cn12 [Example 12, 1-[5-tert-Butyl-2-(3-chloro-4-hydroxy-phenyl)-2H-pyrazol-3-yl]-3-[(1S,4R)-4-(3-isopropyl-[1,2,4]triazolo[4,3-a]pyridin-6-yloxy)-1,2,3,4-tetrahydro-naphthalen-1-yl]-urea] | < 10 |
